{"source": "ChEMBL document CHEMBL6109096", "about": "“Synthesis, anti-allergic rhinitis evaluation and mechanism investigation of novel 1,2,4-triazole-enamides as CB1 R antagonist” (Eur J Med Chem, 2025)", "key": {"RAW264.7 [1]": {"tested_on": "RAW264.7", "experiment": "Cytotoxicity against mouse RAW264.7 cells assessed as reduction in cell viability at 10 uM incubated for 24 hrs by CCK-8 assay", "type": "toxicity, cell-based", "details": "raw264.7, 24 h"}, "RAW264.7 [2]": {"tested_on": "RAW264.7", "experiment": "Downregulation of p-P38 intranuclear expression in mouse RAW264.7 cells by immunofluorescence staining based analysis", "type": "functional, cell-based"}, "Mus musculus [3]": {"tested_on": "Mus musculus", "experiment": "Anti-inflammatory activity in ovalbumin-induced allergic rhinitis male Balb/c mouse assessed as reduction in inflammation of nasal mucosal tissue at 5 mg/kg, po administered via gavage for 7 days by H and E staining based analysis", "type": "functional, organism-based", "details": "time 7.0 day"}, "RAW264.7 [4]": {"tested_on": "RAW264.7", "experiment": "Downregulation of CB1 R expression in LPS-induced mouse RAW264.7 cells by immunofluorescence staining based analysis", "type": "functional, cell-based"}, "RAW264.7 [5]": {"tested_on": "RAW264.7", "experiment": "Downregulation of p-ERK protein expression in LPS-induced mouse RAW264.7 cells by Western blotting analysis", "type": "functional, cell-based"}, "Mus musculus [6]": {"tested_on": "Mus musculus", "experiment": "Anti-inflammatory activity in ovalbumin-induced allergic rhinitis male Balb/c mouse model assessed as decrease in p-p38 intranuclear expression in nasal mucosal at 5 mg/kg, po administered via gavage for 7 days by immunofluorescence staining based analysis", "type": "functional, organism-based", "details": "time 7.0 day"}, "RAW264.7 [7]": {"tested_on": "RAW264.7", "experiment": "Downregulation of p-P38 protein expression in LPS-induced mouse RAW264.7 cells by Western blotting analysis", "type": "functional, cell-based"}, "Mus musculus [8]": {"tested_on": "Mus musculus", "experiment": "Anti-inflammatory activity in ovalbumin-induced allergic rhinitis male Balb/c mouse model assessed as reduction in IgE expression at 5 mg/kg, po administered via gavage for 7 days (reference value: 0.268 +/- 0.045)", "type": "functional", "details": "time 7 day"}, "Mus musculus [9]": {"tested_on": "Mus musculus", "experiment": "Anti-inflammatory activity in ovalbumin-induced allergic rhinitis male Balb/c mouse model assessed as reduction in serum histamine expression at 5 mg/kg, po administered via gavage for 7 days by ELISA", "type": "functional, organism-based", "details": "time 7.0 day"}, "RAW264.7 [10]": {"tested_on": "RAW264.7", "experiment": "Downregulation of p-P38 expression in mouse RAW264.7 cells by immunofluorescence staining based analysis", "type": "functional, cell-based"}, "RAW264.7 [11]": {"tested_on": "RAW264.7", "experiment": "Downregulation of p-JNK protein expression in LPS-induced mouse RAW264.7 cells by Western blotting analysis", "type": "functional, cell-based"}, "Mus musculus [12]": {"tested_on": "Mus musculus", "experiment": "Anti-inflammatory activity in ovalbumin-induced allergic rhinitis male Balb/c mouse assessed as reduction in number of cells on nasal lavage fluid at 5 mg/kg, po administered via gavage for 7 days by giemsa staining based analysis", "type": "functional, organism-based", "details": "time 7.0 day"}, "Mus musculus [13]": {"tested_on": "Mus musculus", "experiment": "Anti-inflammatory activity in ovalbumin-induced allergic rhinitis male Balb/c mouse model assessed as reduction in sneezing at 5 mg/kg, po administered via gavage for 7 days", "type": "functional, organism-based", "details": "time 7.0 day"}, "RAW264.7 [14]": {"tested_on": "RAW264.7", "experiment": "Downregulation of P-P65 protein expression in LPS-induced mouse RAW264.7 cells by Western blotting analysis", "type": "functional, cell-based"}, "RAW264.7 [15]": {"tested_on": "RAW264.7", "experiment": "Downregulation of P-IKBalpha protein expression in LPS-induced mouse RAW264.7 cells by Western blotting analysis", "type": "functional, cell-based"}, "Mus musculus [16]": {"tested_on": "Mus musculus", "experiment": "Anti-inflammatory activity in ovalbumin-induced allergic rhinitis male Balb/c mouse assessed as reduction in number of goblet cells in nasal mucosal tissues at 5 mg/kg, po administered via gavage for 7 days by PAS staining based analysis", "type": "functional, organism-based", "details": "time 7.0 day"}, "Mus musculus [17]": {"tested_on": "Mus musculus", "experiment": "Anti-inflammatory activity in ovalbumin-induced allergic rhinitis male Balb/c mouse model assessed as reduction in nose scratching at 5 mg/kg, po administered via gavage for 7 days", "type": "functional, organism-based", "details": "time 7.0 day"}, "Mus musculus [18]": {"tested_on": "Mus musculus", "experiment": "Anti-inflammatory activity in ovalbumin-induced allergic rhinitis male Balb/c mouse assessed as reduction in number of eosinophils on nasal lavage fluid at 5 mg/kg, po administered via gavage for 7 days by giemsa staining based analysis", "type": "functional, organism-based", "details": "time 7.0 day"}, "Mus musculus [19]": {"tested_on": "Mus musculus", "experiment": "Anti-inflammatory activity in ovalbumin-induced allergic rhinitis male Balb/c mouse assessed as reduction in number of mast cells on nasal lavage fluid at 5 mg/kg, po administered via gavage for 7 days by giemsa staining based analysis", "type": "functional, organism-based", "details": "time 7.0 day"}, "Mus musculus [20]": {"tested_on": "Mus musculus", "experiment": "Anti-inflammatory activity in ovalbumin-induced allergic rhinitis male Balb/c mouse model assessed as reduction in IL-4 expression in nasal lavage fluid at 5 mg/kg, po administered via gavage for 7 days by ELISA", "type": "functional, organism-based", "details": "time 7.0 day"}}, "note": "Activity calls are given as the source filed them. The calls are words filed in the database; no cut-off is given here."}
{"smiles": "Cc1cc(C)c(-c2nc(C(=O)N(C)/C=C\\c3ccccc3)nn2-c2ccccc2)c(C)c1", "values": [{"measurement": "Activity", "setting": "RAW264.7 [1]", "value": "Non-toxic"}]}
{"smiles": "C[C@@H]1C[C@H]2[C@@H]3CCC4=CC(=O)C=C[C@]4(C)[C@@]3(F)[C@@H](O)C[C@]2(C)[C@@]1(O)C(=O)CO", "note": "[DEXAMETHASONE]", "values": [{"measurement": "Activity", "setting": "RAW264.7 [2]", "value": "Active"}, {"measurement": "Activity", "setting": "Mus musculus [3]", "value": "Active"}, {"measurement": "Activity", "setting": "RAW264.7 [4]", "value": "Active"}, {"measurement": "Activity", "setting": "RAW264.7 [5]", "value": "Active"}, {"measurement": "Activity", "setting": "Mus musculus [6]", "value": "Active"}, {"measurement": "Activity", "setting": "RAW264.7 [7]", "value": "Active"}, {"measurement": "Activity", "setting": "Mus musculus [8]", "value": 0.126}, {"measurement": "Activity", "setting": "Mus musculus [9]", "value": "Active"}, {"measurement": "Activity", "setting": "RAW264.7 [10]", "value": "Active"}, {"measurement": "Activity", "setting": "RAW264.7 [11]", "value": "Active"}, {"measurement": "Activity", "setting": "Mus musculus [12]", "value": "Active"}, {"measurement": "Activity", "setting": "Mus musculus [13]", "value": "Active"}, {"measurement": "Activity", "setting": "RAW264.7 [14]", "value": "Active"}, {"measurement": "Activity", "setting": "RAW264.7 [15]", "value": "Active"}, {"measurement": "Activity", "setting": "Mus musculus [16]", "value": "Active"}, {"measurement": "Activity", "setting": "Mus musculus [17]", "value": "Active"}, {"measurement": "Activity", "setting": "Mus musculus [18]", "value": "Active"}, {"measurement": "Activity", "setting": "Mus musculus [19]", "value": "Active"}, {"measurement": "Activity", "setting": "Mus musculus [20]", "value": "Active"}]}
{"smiles": "CCc1nc(C(=O)N(C)/C=C\\c2ccccc2)nn1-c1ccccc1", "values": [{"measurement": "Activity", "setting": "RAW264.7 [1]", "value": "Non-toxic"}]}
{"smiles": "CN(/C=C\\c1ccccc1)C(=O)c1nc(-c2ccc(Br)cc2)n(-c2ccccc2)n1", "values": [{"measurement": "Activity", "setting": "RAW264.7 [1]", "value": "Non-toxic"}]}
{"smiles": "CN(/C=C\\c1ccccc1)C(=O)c1nc(CC(C)(C)C)n(-c2ccccc2)n1", "values": [{"measurement": "Activity", "setting": "RAW264.7 [1]", "value": "Non-toxic"}]}
{"smiles": "Cc1ccccc1-c1nc(C(=O)N(C)/C=C\\c2ccccc2)nn1-c1ccccc1", "values": [{"measurement": "Activity", "setting": "RAW264.7 [1]", "value": "Non-toxic"}]}
